Structure (SMILES)	melting point [°C]
O=C1c2ccccc2C(=O)c2c(Nc3ccc(O)cc3)ccc(Nc3ccc(O)cc3)c21	340 to 342
Cc1ccc(Nc2ccnc(-n3nc(C)cc3C)n2)cc1	52 to 55.6
C#CCN1C(=O)C(C)(C)NC(C)(C)C1=O	77 to 80
CCCCc1c(OC(=O)C(C)(C)C)n(-c2ccc(OC(C)=O)cc2)n(-c2ccccc2)c1=O	151 to 158
COc1ccc(Nc2nc(Cl)nc(NC3CC3)n2)cc1Cl	172
O=[N+]([O-])c1ccc(Cl)c(S)c1	267 to 268
C[C@H](NC(=O)OC(C)(C)C)C(=O)N(CC(=O)N1CCC[C@H]1C(=O)OCc1ccccc1)C1Cc2ccccc2C1	135 to 136
Cc1ccc(CC(=S)N2CCOCC2)cc1	182 to 185
CN1CCC2(CC1)NC(=O)N(c1ccc(C#N)c(C(F)(F)F)c1)C2=O	188 to 189
CCOC(=O)c1nc(NC(C)=O)sc1Cc1ccccc1	178 to 180
O=S1(=O)c2cccc3cccc(c23)N1CCCN1CCN(c2ccc(O)cc2)CC1	185
C=CCNC(=O)C(C)N (configuration not stated)	77.5 to 78
COC(=O)C(O)c1ccc2c(c1)OCO2 (configuration not stated)	93 to 95
CCOC(=O)NN=Cc1c[nH]c(COC)n1	186 to 190
COC(=O)c1cccc2c(C#N)c(OC)ccc12	210 to 211
N#Cc1ccc(Sc2cccc3cnccc23)c(Cl)c1	126 to 128
COc1cccc2c1nc(C(F)F)n2-c1nc(NC2CCN(C(=O)OC(C)(C)C)CC2)c(N)c(N2CCOCC2)n1	223 to 225
COc1ccc(S(=O)(=O)N(C(=O)c2snc(Cl)c2Cl)c2ccc(Cl)cc2)cc1	154 to 158
O=C1NC(=O)c2c1c(-c1ccccc1)cc1c2c2cc(O)ccc2n1CCCN1CCOCC1	252 to 255
CC1COCc2nc3c(N)nc4cc(O)ccc4c3n21 (configuration not stated)	> 250
CCCCOC(=O)COc1ccc(C(=O)Nc2cccc(Cl)c2Cl)cc1	132 to 136

Structure (SMILES)	melting point [°C]
Cc1ccc(-c2ccccc2-c2c(OC(C)C)c(=O)c2=O)cc1	126 to 130
CCCc1nc(N)cc(OC)n1	97 to 99
CCCCOc1ccc(C(=O)Nc2ccc3cc(C(C)N4CCCC4)cnc3c2C)cc1 (configuration not stated)	136 to 139
O=C(O)C1=CSCCO1	144
CN(C)CCNC(=O)c1ccc(-c2ccccc2CSCCOc2ccccc2)cc1	93 to 96
COc1ccc(CNc2n[nH]c3ncnc(Nc4cccc(Cl)c4)c23)cc1	222 to 223
CCCCNC(=O)C=C(C)C=CC=C(C)C=Cc1c(C)cc(OC)c(C)c1C	178
CC(C)c1nc(CO)n(CC(=O)c2ccccc2)c1Sc1cc(Cl)cc(Cl)c1	205 to 211
COC(=O)c1ccc(OC)c2c(I)c(OC)ccc12	120 to 122
CC#CCOc1ccc(SC(C(=O)O)c2ccc(-c3cccs3)cc2)cc1 (configuration not stated)	137
CC(C)(C)C(=O)c1c[nH]c2ncc(-c3ccoc3)nc12	256 to 258
N#Cc1cccc(C2C=C(C(F)(F)F)NC3=C2C(=O)CCC3)c1 (configuration not stated)	182 to 183
O=C(Nc1nnn[nH]1)c1cnc2sc3ccccc3n2c1=O	330 to 332
CCOC(=O)COc1ccc(C2OCCCO2)cc1NC(=O)c1ccc(OCCCCc2ccccc2)cc1	73
COc1cc(-c2ccc(C)cc2)cc2oc(=O)c(C)c(C)c12	123
COc1ccc(C(O)CNC(C)C)s1 (configuration not stated)	81
CC(C)(C)NS(=O)(=O)c1ccc(C(=O)c2ccc(F)cc2)cc1	160
COc1ccc(S(=O)(=O)CC(C)=CCOC(C)=O)cc1	54 to 56
CC(CN1C(=O)C2(COc3cc4c(cc32)CCO4)c2ccccc21)OCc1ccccn1 (configuration not stated)	46 to 54
FC(F)(F)CSc1nc(-c2ccc(Cl)cc2)c(-c2ccc(Cl)cc2)[nH]1	212 to 213
O=C1CCCc2ccc3ccccc3c21	64 to 66

Reference: a melting point compilation (Tetko et al.; mined from patent text by program, amines drawn as free bases though some values may be those of a salt)
